According to US9179678B2, “Substituted [1,2,4]triazoles and substituted tetrazoles as herbicides” (SYNGENTA LIMITED, priority 2012, dated 2015):

Legend:
Assay type in all cases: in vivo
[1] = test system: Alopecurus myosuroides (ALOMY); test: Post-emergence glasshouse herbicide test; settings: POST Application, after 13 days
Summary of the method: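 Alopecurus myosuroides seeds were sown in pots of standard soil and grown for 8 days in a glasshouse at 24/16° C. day/night, 14 hours light and 65% humidity. The plants were then sprayed post-emergence with an aqueous solution made from the active ingredient in acetone/water (50:50) containing 0.5% Tween 20. Percentage plant damage was scored 13 days later.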

Solanum nigrum (SOLNI) [2] = test: Post-emergence glasshouse herbicide test; settings: POST Application, after 13 days
Summary of the method: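 Solanum nigrum seeds were sown in pots of standard soil and grown for 8 days in a glasshouse at 24/16° C. day/night, 14 hours light and 65% humidity. Plants were then sprayed post-emergence with the active ingredient formulated in acetone/water (50:50) containing 0.5% Tween 20. They were grown on under the same conditions with twice-daily watering, and percentage plant damage was scored after 13 days.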

Setaria faberi (SETFA) [3] = test: Post-emergence glasshouse herbicide test; settings: POST Application, after 13 days
Summary of the method: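 Setaria faberi seeds were sown in standard soil in pots and grown for 8 days in a glasshouse at 24/16° C. day/night, 14 hours light and 65% humidity. Plants were then sprayed post-emergence with the active ingredient in acetone/water (50:50) containing 0.5% Tween 20, regrown under the same conditions with twice-daily watering, and scored for percentage damage after 13 days.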

[4] = test system: Alopecurus myosuroides (ALOMY); test: Pre-emergence glasshouse herbicide test; settings: PRE Application, after 13 days
Summary of the method: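 Alopecurus myosuroides seeds were sown in standard soil in pots and kept one day in a glasshouse at 24/16° C. day/night, 14 hours light and 65% humidity. The soil was then sprayed pre-emergence with the active ingredient in acetone/water (50:50) containing 0.5% Tween 20. Plants grew on, watered twice daily, and percentage damage was scored 13 days later.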

[5] = test system: Amaranthus retoflexus (AMARE); test: Post-emergence glasshouse herbicide test; settings: POST Application, after 13 days
[6] = test system: Echinochloa crus-galli (ECHCG); test: Post-emergence glasshouse herbicide test; settings: POST Application, after 13 days
[7] = test system: Ipomoea hederacea (IPOHE); test: Post-emergence glasshouse herbicide test; settings: POST Application, after 13 days
Solanum nigrum (SOLNI) [8] = test: Pre-emergence glasshouse herbicide test; settings: PRE Application, after 13 days
[9] = test system: Amaranthus retoflexus (AMARE); test: Pre-emergence glasshouse herbicide test; settings: PRE Application, after 13 days
Setaria faberi (SETFA) [10] = test: Pre-emergence glasshouse herbicide test; settings: PRE Application, after 13 days
[11] = test system: Echinochloa crus-galli (ECHCG); test: Pre-emergence glasshouse herbicide test; settings: PRE Application, after 13 days
[12] = test system: Ipomoea hederacea (IPOHE); test: Pre-emergence glasshouse herbicide test; settings: PRE Application, after 13 days
[13] = test system: Amaranthus retoflexus (AMARE); test: Post-emergence glasshouse herbicide test; settings: POST Application, 1000 g/h, after 13 days
[14] = test system: Echinochloa crus-galli (ECHCG); test: Post-emergence glasshouse herbicide test; settings: POST Application, 1000 g/h, after 13 days
[15] = test system: Ipomoea hederacea (IPOHE); test: Post-emergence glasshouse herbicide test; settings: POST Application, 1000 g/h, after 13 days
[16] = test system: Amaranthus retoflexus (AMARE); test: Pre-emergence glasshouse herbicide test; settings: PRE Application, 1000 g/h, after 13 days
[17] = test system: Echinochloa crus-galli (ECHCG); test: Pre-emergence glasshouse herbicide test; settings: PRE Application, 1000 g/h, after 13 days
[18] = test system: Ipomoea hederacea (IPOHE); test: Pre-emergence glasshouse herbicide test; settings: PRE Application, 1000 g/h, after 13 days
Setaria faberi (SETFA) [19] = test: Pre-emergence glasshouse herbicide test; settings: PRE Application, 1000 g/h, after 13 days
Solanum nigrum (SOLNI) [20] = test: Pre-emergence glasshouse herbicide test; settings: PRE Application, 1000 g/h, after 13 days

## Cn1nnnc1NC(=O)c1nc2ccc(F)cc2n(-c2ccccc2)c1=O [Compound 5.010]
[1]; applied at 250 g/ha
  percentage damage caused to the plant, ALOMY: 1 (1=0-19%)
Solanum nigrum (SOLNI) [2]; applied at 250 g/ha
  percentage damage caused to the plant, SOLNI: 5 (5=80-100%)
Setaria faberi (SETFA) [3]; applied at 250 g/ha
  percentage damage caused to the plant, SETFA: 4 (4=60-79%)
[4]; applied at 250 g/ha
  percentage damage caused to the plant, ALOMY: 1 (1=0-19%)
[5]; applied at 250 g/ha
  percentage damage caused to the plant, AMARE: 5 (5=80-100%)
[6]; applied at 250 g/ha
  percentage damage caused to the plant, ECHCG: 3 (3=40-59%)
[7]; applied at 250 g/ha
  percentage damage caused to the plant, IPOHE: 5 (5=80-100%)
Solanum nigrum (SOLNI) [8]; applied at 250 g/ha
  percentage damage caused to the plant, SOLNI: 4 (4=60-79%)
[9]; applied at 250 g/ha
  percentage damage caused to the plant, AMARE: 5 (5=80-100%)
Setaria faberi (SETFA) [10]; applied at 250 g/ha
  percentage damage caused to the plant, SETFA: 1 (1=0-19%)
[11]; applied at 250 g/ha
  percentage damage caused to the plant, ECHCG: 1 (1=0-19%)
[12]; applied at 250 g/ha
  percentage damage caused to the plant, IPOHE: 2 (2=20-39%)

## Cn1nnnc1NC(=O)c1nc2ccccc2n(-c2ccoc2)c1=O [Compound 5.013]
[1]; applied at 250 g/ha
  percentage damage caused to the plant, ALOMY: 1 (1=0-19%)
Solanum nigrum (SOLNI) [2]; applied at 250 g/ha
  percentage damage caused to the plant, SOLNI: 5 (5=80-100%)
Setaria faberi (SETFA) [3]; applied at 250 g/ha
  percentage damage caused to the plant, SETFA: 1 (1=0-19%)
[4]; applied at 250 g/ha
  percentage damage caused to the plant, ALOMY: 1 (1=0-19%)
[5]; applied at 250 g/ha
  percentage damage caused to the plant, AMARE: 5 (5=80-100%)
[6]; applied at 250 g/ha
  percentage damage caused to the plant, ECHCG: 1 (1=0-19%)
[7]; applied at 250 g/ha
  percentage damage caused to the plant, IPOHE: 4 (4=60-79%)
Solanum nigrum (SOLNI) [8]; applied at 250 g/ha
  percentage damage caused to the plant, SOLNI: 5 (5=80-100%)
[9]; applied at 250 g/ha
  percentage damage caused to the plant, AMARE: 5 (5=80-100%)
Setaria faberi (SETFA) [10]; applied at 250 g/ha
  percentage damage caused to the plant, SETFA: 2 (2=20-39%)
[11]; applied at 250 g/ha
  percentage damage caused to the plant, ECHCG: 2 (2=20-39%)
[12]; applied at 250 g/ha
  percentage damage caused to the plant, IPOHE: 4 (4=60-79%)

## Cc1cc(-n2c(=O)c(C(=O)Nc3nnnn3C)nc3ccccc32)ccc1F [Compound 5.028]
[1]; applied at 500 g/ha
  percentage damage caused to the plant, ALOMY: 4 (4=60-79%)
Solanum nigrum (SOLNI) [2]; applied at 500 g/ha
  percentage damage caused to the plant, SOLNI: 5 (5=80-100%)
Setaria faberi (SETFA) [3]; applied at 500 g/ha
  percentage damage caused to the plant, SETFA: 5 (5=80-100%)
[4]; applied at 500 g/ha
  percentage damage caused to the plant, ALOMY: 3 (3=40-59%)
[5]; applied at 500 g/ha
  percentage damage caused to the plant, AMARE: 5 (5=80-100%)
[6]; applied at 500 g/ha
  percentage damage caused to the plant, ECHCG: 5 (5=80-100%)
[7]; applied at 500 g/ha
  percentage damage caused to the plant, IPOHE: 5 (5=80-100%)
Solanum nigrum (SOLNI) [8]; applied at 500 g/ha
  percentage damage caused to the plant, SOLNI: 5 (5=80-100%)
[9]; applied at 500 g/ha
  percentage damage caused to the plant, AMARE: 5 (5=80-100%)
Setaria faberi (SETFA) [10]; applied at 500 g/ha
  percentage damage caused to the plant, SETFA: 5 (5=80-100%)
[11]; applied at 500 g/ha
  percentage damage caused to the plant, ECHCG: 5 (5=80-100%)
[12]; applied at 500 g/ha
  percentage damage caused to the plant, IPOHE: 5 (5=80-100%)

## Cn1nnnc1NC(=O)c1cc2ccncc2n(-c2ccccc2)c1=O [Compound 8.001]
[1]; 1000 g/h
  percentage damage caused to the plant, ALOMY: 1 (1=0-19%)
[13]
  percentage damage caused to the plant, AMARE: 5 (5=80-100%)
[14]
  percentage damage caused to the plant, ECHCG: 4 (4=60-79%)
[15]
  percentage damage caused to the plant, IPOHE: 3 (3=40-59%)
Solanum nigrum (SOLNI) [2]; 1000 g/h
  percentage damage caused to the plant, SOLNI: 5 (5=80-100%)
Setaria faberi (SETFA) [3]; 1000 g/h
  percentage damage caused to the plant, SETFA: 1 (1=0-19%)
[4]; 1000 g/h
  percentage damage caused to the plant, ALOMY: 1 (1=0-19%)
[16]
  percentage damage caused to the plant, AMARE: 5 (5=80-100%)
[17]
  percentage damage caused to the plant, ECHCG: 1 (1=0-19%)
[18]
  percentage damage caused to the plant, IPOHE: 1 (1=0-19%)
Setaria faberi (SETFA) [19]
  percentage damage caused to the plant, SETFA: 1 (1=0-19%)
Solanum nigrum (SOLNI) [20]
  percentage damage caused to the plant, SOLNI: 2 (2=20-39%)
